The record followed here is US20230257315A1, “AGRICULTURE COMPOSITIONS AND AP[…] MINERAL COMPOUNDS” (Ralco Nutrition, Inc., priority 2012, published 2023).

Data set [1] concerns corn. The note with it: 5 g elemental cobalt per acre in-furrow.
Text: Various cobalt compounds were applied in-furrow to natural soil with corn seeded, then grown in greenhouse conditions. The cobalt compounds were applied at a rate of 5 g elemental cobalt per acre and compared to an untreated control. The compounds included: cobalt acetate, cobalt carbonate, cobalt gluconate and cobalt sulfate. The trial consisted of four replicates in a randomized complete block design. The plants were harvested after 53 days of growth and measured for plant health characteristics and nutrient uptake.
The test system of data set [2] is field corn. Nature of the data set: Cobalt lactate in-furrow with field corn, greenhouse, nutrient uptake. Type of data set: in vivo. The note with it: 5 g cobalt per acre in-furrow, 53 days of growth.
The subject of data set [3] is corn. Nature of the data set: Greenhouse study of absorptivity of cobalt lactate into corn vegetative tissue with and without glyphosate. Type of data set: in vivo. The note with it: foliar spray at V4-V6, day 6. As to the method: A greenhouse study was completed to evaluate the absorptivity of cobalt lactate into corn vegetative tissue when applied with and without glyphosate herbicide. The corn seeds were potted in natural soil and allowed to grow to the V4-V6 growth stage. At this time the plants were treated with foliar sprays of cobalt lactate, and cobalt lactate with glyphosate and ammonium sulfate (AMS). The glyphosate was commercially available and used at the recommended use rate of 1 qt per acre. The AMS was applied as described in Example 6. Six replicate vegetative portions of the plants were sampled at days 1 and 6 after the application and analyzed for cobalt content.
The initial absorption rate was slowed with the addition of glyphosate and AMS to the cobalt lactate solution.

[4] abbreviates: 53 days of growth, vs untreated control.

`O=C([O-])[O-].[Co+2]` [cobalt carbonate]: in data set [1] (setting [4]), the “increase in root mass” value is reported as 6.7% and the vegetative wet weight entry was “slight increase”.
Turning to cobalt gluconate, the “increase in vegetative K concentration” value in data set [1] (setting [4]) was found to be 2.3%.
As to `CC(=O)[O-].CC(=O)[O-].[Co+2]` [cobalt acetate], in data set [1] (setting [4]), the “increase in the vegetative N content” value is recorded as 1.7% and the “increase in vegetative K concentration” value is 9.3%. Moreover, in data set [1] (vegetative tissue, 53 days), the “tissue concentration increase Fe” value is listed as 20.9%, the “tissue concentration increase Mn” value worked out at 37.5% and the “tissue concentration increase Zn” value worked out at 9.4%.
As for cobalt lactate, in data set [2], the “increase of nitrogen within the vegetation over the untreated control” value stood at 4.6%, the “increase of potassium within the vegetation over the untreated control” value was determined as 7.8%, the “nitrogen concentration increase within the root over the untreated control” value is given as 2.2% and the “phosphorus concentration increase within the root over the untreated control” value is listed as 4.2%. Also, in data set [2], the “phosphorus content within the vegetation versus untreated control” value is “no difference” and the “potassium concentration increase within the root over the untreated control” value turned out to be 12.2%. Further, the “cobalt concentration in vegetative tissue after 6 days” value in data set [3] was “consistent between the two treatments”.
